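A five-concentration, 48-hour dose response in 96-well plates underlies each endpoint, interpolated linearly between surrounding concentrations. GI50 is the concentration that inhibits growth by half. TGI: total growth inhibition.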
Key:
Assay in all cases: NCI tumour cell line growth inhibition, 48 h
[1] = test system: SF-268 CNS
[2] = test system: SN12C renal
[3] = test system: NCI-H522 lung
[4] = test system: NCI/ADR-RES ovarian
[5] = test system: CAKI-1 renal
[6] = test system: SF-295 CNS
[7] = test system: MDA-MB-435
[8] = test system: SNB-78 CNS
[9] = test system: SK-OV-3 ovarian
[10] = test system: SF-539 CNS

Compound | TGI [1] [µM] | TGI [2] [µM] | TGI [3] [µM] | TGI [4] [µM] | TGI [5] [µM] | TGI [6] [µM] | TGI [7] [µM] | TGI [8] [µM] | TGI [9] [µM] | TGI [10] [µM] | GI50 [9] [µM] | GI50 [1] [µM] | GI50 [10] [µM] | GI50 [2] [µM] | GI50 [4] [µM] | GI50 [5] [µM] | GI50 [7] [µM] | GI50 [3] [µM] | GI50 [6] [µM]
Cc1ccc(CCCC(=O)O)cc1C | > 100 | > 100 | > 100 | > 100 | > 100 | > 100 | > 100 | – | – | – | – | – | – | – | – | – | – | – | –
CSc1nc(NC2OC(CO)C(O)C(O)C2O)c(N)c(=O)n1C (stereo not drawn) | > 100 | > 100 | > 100 | > 100 | – | > 100 | – | > 100 | > 100 | > 100 | – | – | – | – | – | – | – | – | –
N=C(N)c1ccc(-c2ccc(-c3ccccc3)o2)cc1 | 4.28 | 7.61 | – | 5.85 | 9.85 | – | 3.03 | – | 10.2 | 3.38 | 2.89 | 1.96 | 1.65 | 2.72 | 2.2 | 2.78 | 1.66 | – | –
Nc1cccc2cc(S(=O)(=O)Nc3ccc(C(=O)O)cc3)ccc12 | > 100 | > 100 | > 100 | > 100 | > 100 | > 100 | > 100 | – | > 100 | – | – | – | – | – | – | – | – | – | –
NC(=O)OCc1c(O)c2c(c(O)c1COC(N)=O)C(=O)C=CC2=O | > 100 | > 100 | > 100 | – | > 100 | > 100 | – | > 100 | > 100 | > 100 | – | – | – | – | – | – | – | – | –
COc1ccc(C2C(Cl)C(=O)N2NC(=O)c2ccc(NC(C)=O)cc2)cc1OC (stereo not drawn) | > 100 | – | > 100 | – | – | > 100 | – | – | > 100 | > 100 | – | – | – | – | – | – | – | – | –
O=C(Nc1ccc(-n2cc(-c3ccncc3)c(-c3ccc(O)c(Cl)c3)n2)cc1)c1ccc(Cl)c(Cl)c1 | > 32.5 | > 32.5 | > 32.5 | > 32.5 | > 32.5 | 2.26 | > 32.5 | – | – | 2.25 | – | > 32.5 | 0.656 | 2.95 | 2.02 | 2.21 | 2.06 | 0.801 | 0.833
CC(C)c1cccc(C(C)C)c1NC(=S)Nc1ccccc1 | > 100 | > 100 | – | – | – | > 100 | – | > 100 | > 100 | > 100 | – | – | – | – | – | – | – | – | –
CCN(CC)CCSc1nc2c([N+](=O)[O-])cccc2[nH]1 | – | > 100 | > 100 | – | > 100 | – | – | > 100 | > 100 | > 100 | – | – | – | – | – | – | – | – | –
CC[n+]1c(/C=C/c2ccc(N(CCCl)CCCl)cc2)ccc2cc(Br)ccc21 | – | 10.6 | 4.66 | – | – | – | – | 15.4 | 9.09 | 4.29 | – | – | – | – | – | 1650 | – | – | 1150
O=C1c2ccccc2-c2ccc(N(Cc3ccc(Br)cc3)Cc3ccc(Br)cc3)cc21 | > 100 | > 100 | > 100 | > 100 | > 100 | > 100 | > 100 | – | > 100 | > 100 | – | – | – | – | – | – | – | – | –
CC(C)=CCC/C(C)=C/CC/C(C)=C/C(O)c1ccccc1 (stereo not drawn) | 35.3 | 33.9 | > 10 | – | > 10 | 33.8 | – | 68 | 36.5 | – | – | – | – | – | – | – | – | – | –
CNC1=C(C)C(=O)C2=C(C1=O)C(COC(N)=O)C1(OC)C3NC3CN21 (stereo not drawn) | 12.9 | – | 2.22 | – | 2.78 | 10.5 | 5.67 | – | 36.5 | 1.92 | – | – | – | – | – | – | – | – | –

From PubChem BioAssay (NCI)
